Columns and labels:
[1] = system: exsheathed third-stage larvae (xL3s) of H. contortus; assay: High throughput screen, xL3 motility (infrared light beam-interference); assay type: cell-based; conditions: Haemonchus contortus, 90 h, read-out: Motility reduction at 90 h (%)
Protocol: An established platform was used for compound screening ([Taki et al., 2021a]). Using a semi-automated liquid handling robot (VIAFLO ASSIST PLUS, Integra Biosciences), compounds were individually diluted to […] in LB* containing 0.2% (v/v) DMSO and then dispensed in 20 µl into the wells of sterile 384-well flat bottom microtitre plates (cat. no. 3680; Corning); 320 compounds were arrayed on each plate, with 16 wells being negative controls (with LB* + 0.2% DMSO) and four wells containing each monepantel (Zolvix; Elanco), moxidectin (Cydectin; Virbac), monepantel + abamectin (Zolvix Plus; Elanco) and compound MIPS-0018666 (abbreviated here as M-666) ([Le et al., 2018]) as positive controls (20 µM). Following the dilution and dispensing of compounds into plates, 80 H. contortus xL3s in 20 μl of LB* were transferred to individual wells; after this step, the final concentrations were 20 µM of test- or positive-control compound, and 0.2% of DMSO. During dispensing, xL3s were maintained in a homogenous suspension using a constant stream of bubbles produced employing an aquarium pump (H2Pro). Plates containing H. contortus xL3s were incubated at 38 °C, 10% (v/v) CO2 and >90% relative humidity.
After 90 h of incubation with compounds (20 μM), H. contortus xL3s motility was measured for 15 min in individual wells of each plate by infrared light beam-interference ([Simonetta and Golombek, 2007]) using a WMicroTracker ONE instrument (Phylumtech). Raw data captured were normalised against measurements obtained for the positive (monepantel) and negative (LB* + 0.2% DMSO) controls to remove plate-to-plate variation by calculating the percentage of motility using the program GraphPad Prism (v.9.1.2; GraphPad Software). A compound was considered active (“hit”) if it reduced larval motility by ≥ 70%. To continually assess the performance of the screening assay, the Z′-factor ([Zhang et al., 1999]) was calculated (using data for the DMSO and the M-666 controls) for individual plates (n = 43) and was consistently ≥0.7; reliable assays achieve a Z′-factor of between 0.5 and 1. The signal to background (S/B) ratio (for the same controls) ([Sui and Wu, 2007]) was consistently >200.

[2] = system: H. contortus xL3 to L4 development; assay: High throughput screen, larval development and phenotype at 168 h; assay type: cell-based, Haemonchus contortus; conditions: for inhibition at 20 µM: Haemonchus contortus, development to L4; for Abnormal phenotype detected at 168 h: 20 µM
Protocol: Following the measurement of xL3 motility, plates were incubated again for 78 h (i.e., a total of 168 h) under the same conditions. Thereafter, 40 µl of 1% (v/v) iodine were added to individual wells, and worms examined using a light microscope (M80, Leica) at 60-times magnification to assess larval development, based on the presence/absence of a well-developed pharynx ([Sommerville, 1966]), and/or phenotypic alterations with respect to untreated xL3s.

| SMILES | inhibition at 20 µM [1] [%] | inhibition at 20 µM [2] [%] | Abnormal phenotype detected at 168 h [2] |
| --- | --- | --- | --- |
| NC(=O)C1CCN(C(=O)c2ccc(Oc3cc(Cl)cc(Cl)c3)o2)CC1 [MBHF-hit15, 1-{[5-(3,5-dichlorophenoxy)-2-furyl]carbonyl}-4-piperidinecarboxamide] | 78.7 | < 80 |  |
| COc1ccc(SCc2nsc(Sc3ccc(OC)cc3)n2)cc1 [MBHF-hit16, 5-[(4-methoxyphenyl)thio]-3-{[(4-methoxyphenyl)thio]methyl}-1,2,4-thiadiazole] | 78.5 | 80 to 99 | Cur, Evi |
| CS(=O)(=O)c1ccc2ccn(O)c2c1 [MBHF-hit29, 6-(methylsulfonyl)-1H-indol-1-ol] | 72 | < 80 |  |
| C(#Cc1ccc(-c2cc[nH]n2)s1)c1ccccc1 [MBHF-hit2, 3-[5-(2-phenyleth-1-ynyl)-2-thienyl]-1H-pyrazole] | 98.4 | 100 | Cur, Evi |
| CCCc1ccc(-c2ccc(C#N)cc2)nc1 [MBHF-hit19, 4-(5-propyl-2-pyridyl)benzonitrile] | 76.9 | < 80 |  |
| N#CC(=NNc1ccc(Cl)cc1Cl)C(=O)c1ccc(Cl)cc1 [MBHF-hit5, 3-(4-chlorophenyl)-2-[2-(2,4-dichlorophenyl)hydrazono]-3-oxopropanenitrile] | 95.2 | 100 |  |
| CSC(=NS(=O)(=O)c1ccc(C)cc1)N(C)C [MBHF-hit34, N1-[(dimethylamino)(methylthio)methylidene]-4-methylbenzene-1-sulfonamide] | 70.3 | < 80 |  |
| C(#Cc1ccc(-c2ccn[nH]2)cc1)c1ccccc1 [MBHF-hit6, 5-[4-(2-phenyleth-1-ynyl)phenyl]-1H-pyrazole] | 94 | 100 | Cur, Evi |
| Cc1ccc2oc(=O)n(CCC(N)=NOC(=O)c3ccccc3)c2c1 [MBHF-hit14, N'-(benzoyloxy)-3-[5-methyl-2-oxo-1,3-benzoxazol-3(2H)-yl]propanimidamide] | 81.6 | < 80 |  |
| Clc1ccc(Oc2ccnc3cc(Cl)ccc23)cc1 [MBHF-hit26, 7-chloro-4-(4-chlorophenoxy)quinoline] | 73.9 | 80 to 99 | Cur, Evi |
| O=S1(=O)CC=C(Cl)C1 [MBHF-hit30, 3-chloro-2,5-dihydro-1H-1lambda~6~-thiophene-1,1-dione] | 71.5 | < 80 |  |
| CC12NC(=O)NC1(C)NC(=O)N2 (stereo not drawn) [MBHF-hit22, 3a,6a-dimethylperhydroimidazo[4,5-d]imidazole-2,5-dione] | 76.3 | < 80 |  |
| O=C(Nc1ccc(F)cc1)Nc1cnn(-c2ccc([N+](=O)[O-])cc2)c1C(F)(F)F [MBHF-hit12, N-(4-fluorophenyl)-N'-[1-(4-nitrophenyl)-5-(trifluoromethyl)-1H-pyrazol-4-yl]urea] | 82.3 | 80 to 99 | Cur, Evi |
| CCCCOc1ccc(-c2ccc(C#N)cc2)cc1 [MBHF-hit4, 4'-butoxy[1,1'-biphenyl]-4-carbonitrile] | 95.6 | 100 | Cur, Evi |
| O=C1c2ccccc2C(=O)N1CCSCc1cccc(C(F)(F)F)c1 [MBHF-hit21, 2-(2-{[3-(trifluoromethyl)benzyl]thio}ethyl)-1H-isoindole-1,3(2H)-dione] | 76.5 | 100 | Cur, Evi |
| O=C(c1ccc(-c2cccs2)s1)c1ccc(F)cc1F [MBHF-hit20, (2,4-difluorophenyl)[5-(2-thienyl)-2-thienyl]methanone] | 76.7 | 100 | Str, Cur |
| CCOC(=O)c1ccc(Oc2ccc(Cl)cc2Cl)c([N+](=O)[O-])c1 [MBHF-hit36, ethyl 4-(2,4-dichlorophenoxy)-3-nitrobenzoate] | 70.2 | < 80 |  |

| SMILES | inhibition at 20 µM [1] [%] | inhibition at 20 µM [2] [%] | Abnormal phenotype detected at 168 h [2] |
| --- | --- | --- | --- |
| N#CC(=NNc1cccc(C(F)(F)F)c1)C(=O)c1csc(-c2cccnc2)n1 [MBHF-hit18, 3-oxo-3-[2-(3-pyridyl)-1,3-thiazol-4-yl]-2-{2-[3-(trifluoromethyl)phenyl]hydrazono}propanenitrile] | 77.1 | < 80 |  |
| CC(=NOc1nc(-c2ccccc2)ns1)c1cccs1 [MBHF-hit3, 1-(2-thienyl)-1-ethanone O-(3-phenyl-1,2,4-thiadiazol-5-yl)oxime] | 96.4 | < 80 | Cur, Evi |
| c1ccc(COc2ccc(CCC3OCCO3)cc2)cc1 [MBHF-hit32, 2-[4-(benzyloxy)phenethyl]-1,3-dioxolane] | 71.1 | < 80 |  |
| CCCCCc1cnc(-c2ccc(C#N)cc2)nc1 [MBHF-hit25, 4-(5-pentylpyrimidin-2-yl)benzonitrile] | 74.5 | 100 | Cur, Evi |
| Nc1ccccc1C(=O)N1CCN(c2ccc([N+](=O)[O-])cn2)CC1 [MBHF-hit11, (2-aminophenyl)[4-(5-nitro-2-pyridyl)piperazino]methanone] | 82.7 | < 80 |  |
| O=C(C=CSc1ccc(Cl)cc1)c1cccs1 [MBHF-hit9, 3-[(4-chlorophenyl)thio]-1-(2-thienyl)prop-2-en-1-one] | 89.4 | 100 |  |
| COc1c(C(=O)NCc2ccc(Cl)cc2)csc1Cl [MBHF-hit27, 5-chloro-N-(4-chlorobenzyl)-4-methoxy-3-thiophenecarboxamide] | 73.4 | < 80 | Cur, Evi |
| N#Cc1c(Cl)c(Cl)c(Cl)c(Cl)c1C#N [MBHF-hit8, 3,4,5,6-tetrachlorophthalonitrile] | 91 | < 80 |  |
| O=[N+]([O-])c1ccc2c(c1)CCN2S(=O)(=O)c1ccccc1 [MBHF-hit31, 5-nitro-1-(phenylsulfonyl)indoline] | 71.5 | < 80 |  |
| FC(F)(F)c1ccc(SCc2ccc(-c3ncns3)cc2)nc1 [MBHF-hit33, 5-[4-({[5-(trifluoromethyl)-2-pyridyl]thio}methyl)phenyl]-1,2,4-thiadiazole] | 70.3 | 80 to 99 | Cur, Evi |
| O=C(c1cc(C(F)(F)F)cc(C(F)(F)F)c1)N1CCC(O)(c2ccc(Cl)cc2)CC1 [MBHF-hit10, [3,5-bis(trifluoromethyl)phenyl][4-(4-chlorophenyl)-4-hydroxypiperidino]methanone] | 84.2 | < 80 |  |
| CC1=CSC(=C(C#N)C(=O)c2ccccc2Cl)N1c1ccccc1Cl [MBHF-hit13, 3-(2-chlorophenyl)-2-[3-(2-chlorophenyl)-4-methyl-1,3-thiazol-2(3H)-ylidene]-3-oxopropanenitrile] | 78.8 | < 80 |  |
| Cc1nc2c(cnn2-c2ccccc2)c(=O)o1 [MBHF-hit24, 6-methyl-1-phenylpyrazolo[3,4-d][1,3]oxazin-4(1H)-one] | 74.6 | < 80 |  |
| CC(=O)c1ccc(NC(=O)CSc2nnc(-c3ccco3)n2C)cc1 [MBHF-hit28, N-(4-acetylphenyl)-2-{[5-(2-furyl)-4-methyl-4H-1,2,4-triazol-3-yl]sulfanyl}acetamide] | 72.7 | < 80 |  |
| CC(C)c1cc(Br)c(NC(=O)NCc2ccco2)c(Br)c1 [MBHF-hit23, N-(2,6-dibromo-4-isopropylphenyl)-N'-(2-furylmethyl)urea] | 74.8 | < 80 |  |
| CSc1c(-c2ccc(Cl)cc2)[nH]c2ccccc12 [MBHF-hit7, 2-(4-chlorophenyl)-3-(methylthio)-1H-indole] | 91.9 | 100 | Cur, Evi |
| OC(CNCCNc1nccc(C(F)(F)F)n1)c1ccccc1 (stereo not drawn) [MBHF-hit35, 1-phenyl-2-[(2-{[4-(trifluoromethyl)pyrimidin-2-yl]amino}ethyl)amino]ethan-1-ol] | 70.2 | < 80 |  |

Source: publication PMC9616048, “Thermal proteome profiling reveals Haemonchus orphan protein HCO_011565 as a target of the nematocidal small molecule UMW-868” (Frontiers in Pharmacology, 2022)
